Measured values reported in patent US20110105623A1 (Biogenic Innovations, LLC, priority 2009, published 2011).
Values joined by “and” are separate entries in the source; they are usually repeats but may differ in a detail not shown here. Equal values may be shown once. Read-outs that look alike come from different tables or passages of the source.

What was measured:
Bifidobacterium bifidum = experiment: Growth in MRS broth fortified with MSM (anaerobic); assay type: cell-based; conditions: for log higher than the 0% MSM control: 48 hours
Method: Each organism (Lactobacillus rhamnosus, Lactobacillus acidophilus, and Bifidobacterium bifidum) was grown in MRS bacterial growth medium (broth) and plated on MRS agar at different time intervals. Results are expressed in colony forming units per milliliter (cfu/mL).
The 0.1% and 0.04% test concentrations were prepared by making a 1:10 dilution of the 1% and 0.4% test solutions. Once each set of test media was plated for sterility, they were inoculated at a level of 100 μl of inoculum per 100 g or mLs of test broth (1:1000 inoculum dilutions) with each respective microorganism. All bacterial organisms were incubated at 35° C.+/−2° C. for the duration of the study.
All samples were plated on MRS agar at time 0, 12, 36, 48, 60 and 72 hours (+/−45 minutes). All preparations and plating were conducted at room temperature. All plating events were incubated at 35° C.+/−2° C. for at least 2 days or 3 days for Bifidobacterium. Test samples were plated in triplicate at each test date and the averages are reported.
Bifidobacterium bifidum, a common microbe used in probiotics, was also tested. All Bifidobacterium samples were incubated under anaerobic conditions.

Staphylococcus aureus = experiment: USP <51> AET in cosmetic cream/composition; assay type: cell-based; conditions: for Log Reduction from Initial Microorganism Inoculum: 14, 28 Days
Pseudomonas aeruginosa = experiment: USP <51> AET in cosmetic cream/composition; assay type: cell-based; conditions: for AET microorganism count: 48 hrs-28 days; for Log Reduction from Initial Microorganism Inoculum: 14, 28 Days
Aspergillus niger = experiment: USP <51> AET in cosmetic cream/composition; assay type: cell-based; conditions: 10% MSM in cosmetic cream without preservative, 48 hrs-28 days
[1] = test system: normal flora found in the product; conditions: for Log Growth: rows 0.5-10% MSM
[2] = test system: Swine-like H1N1 Influenza A virus strain A/California/04/2009; assay type: cell-based
Candida albicans = experiment: USP <51> AET in cosmetic cream/composition; assay type: cell-based; conditions: for AET microorganism count: 48 hrs-28 days; for Log Reduction from Initial Microorganism Inoculum: 14, 28 Days
[3] = test system: White Labs Edinburgh Ale yeast; experiment: Fermentation efficiency in production of beer (Scotch Ale); assay type: cell-based; conditions: 0.5% MSM
Source text: This positive impact includes such organisms as fungi, yeast, and bacteria. Yeast cultures are involved in the production of beer during the fermentation process to produce ethanol and carbon dioxide. […] Wort is the liquid extracted from the mashing process during the brewing of beer or whisky. Wort contains the sugars that are fermented by the brewing yeast to produce alcohol.
This Procedure is detailed below.
After preparing the mash, the brewing process was started. […] Equipment was cleaned thoroughly with PBW. The wort chiller and filtered air stone were sanitized with brewing sanitizer (San Star Brewing Sanitizer). […] At 30 minutes of boil, a second aliquot (0.5 ounces) of Cascade hops was added. At 40 minutes of boil, third aliquot (0.5 ounces) of Cascade hops was added as well as 2 teaspoons of […] Moss. At 50 minutes of boil, a fourth aliquot (0.5 ounces) of Cascade hops was added. Wort was decanted from the brew kettle to the wort chiller and chilled to 74° F. The wort was then divided into two fermentors (each 21 liters in volume). […] Both fermentors were aerated for 25 minutes with sanitized filtered air stone.

[4] = 10% MSM in preservative-free jojoba cream
[5] = 10% MSM in cosmetic cream without preservative

Methylsulfonylmethane [MSM]
log increases of Bifidobacterium (Bifidobacterium bifidum; 0.2% MSM): 2 log
log higher than the 0% MSM control (Bifidobacterium bifidum; 0.04% MSM): 1 log
log higher than the 0% MSM control (Bifidobacterium bifidum; 0.2% MSM): 1 log
AET microorganism count (Staphylococcus aureus; 10% MSM in cosmetic cream without preservative, 48 hrs-28 days): <10
Log Reduction from Initial Microorganism Inoculum (Staphylococcus aureus; [4]): 5.6 log
Log Reduction from Initial Microorganism Inoculum (Staphylococcus aureus; 10% MSM, Composition #1): 5.7 log
Log Reduction from Initial Microorganism Inoculum (Staphylococcus aureus; 10% MSM, Composition #2): 5.7 log
AET microorganism count (Pseudomonas aeruginosa; 10% MSM in Preservative Free Cosmetic Composition #1, 48 hours after inoculation): 7.3 × 10^3
AET microorganism count (Pseudomonas aeruginosa; 10% MSM in Preservative Free Cosmetic Composition #1, 7 days after inoculation): <10
AET microorganism count (Pseudomonas aeruginosa; [5]): <10
Log Reduction from Initial Microorganism Inoculum (Pseudomonas aeruginosa; [4]): 5.3 log
Log Reduction from Initial Microorganism Inoculum (Pseudomonas aeruginosa; 10% MSM, Composition #1): 5.8 log
Log Reduction from Initial Microorganism Inoculum (Pseudomonas aeruginosa; 10% MSM, Composition #2): 5.8 log
AET microorganism count (Aspergillus niger; 48 hours after inoculation): 8 × 10^3
AET microorganism count (Aspergillus niger; 14 days after inoculation): 6 × 10^3
AET microorganism count (Aspergillus niger; 28 days after inoculation): 5 × 10^2
Log Growth of 40% Milk Fat ([1]; 0.5% MSM, day 0): 0.00 logs
Log Growth of 40% Milk Fat ([1]; 0.5% MSM, day 7): 0.35 logs
Log Growth of 40% Milk Fat ([1]; 0.5% MSM, day 14): 2.32 logs
Log Growth of 40% Milk Fat ([1]; 0.5% MSM, day 21): 4.46 logs
Log Growth of 40% Milk Fat ([1]; 0.5% MSM, day 24): 4.02 logs
Log Growth of 40% Milk Fat ([1]; 0.5% MSM, day 28): 1.95 logs
Log Growth of 40% Milk Fat ([1]; 1.0% MSM, day 7): 0.00 logs
Log Growth of 40% Milk Fat ([1]; 1.0% MSM, day 14): 2.37 logs
Log Growth of 40% Milk Fat ([1]; 1.0% MSM, day 21): 4.35 logs
Log Growth of 40% Milk Fat ([1]; 1.0% MSM, day 24): 3.33 logs
Log Growth of 40% Milk Fat ([1]; 1.0% MSM, day 28): 3.86 logs
Log Growth ([1]; 2% Milk Fat, day 7): 1.59 log
Log Growth of 40% Milk Fat ([1]; 5.0% MSM, day 0): 0.00 logs
Log Growth of 40% Milk Fat ([1]; 5.0% MSM, day 7): 0.80 logs
Log Growth of 40% Milk Fat ([1]; 5.0% MSM, day 14): 0.50 logs
Log Growth of 40% Milk Fat ([1]; 5.0% MSM, day 21): 1.25 logs
Log Growth of 40% Milk Fat ([1]; 5.0% MSM, day 24): 1.03 logs
Log Growth of 40% Milk Fat ([1]; 5.0% MSM, day 28): 0.35 logs
Log Growth of 40% Milk Fat ([1]; 10.0% MSM, day 0): 0.00 logs
Log Growth of 40% Milk Fat ([1]; 10.0% MSM, day 7): 0.00 logs
Log Growth of 40% Milk Fat ([1]; 10.0% MSM, day 14): 1.95 logs
Log Growth of 40% Milk Fat ([1]; 10.0% MSM, day 21): 4.45 logs
Log Growth of 40% Milk Fat ([1]; 10.0% MSM, day 24): 0.85 logs
Log Growth of 40% Milk Fat ([1]; 10.0% MSM, day 28): 0.35 logs
lower than the control by ([1]; 40% milk product, Day 21, 5.0% MSM): 3.22 logs
microbial load ([1]; 40% milk product, Day 21, […] MSM): 2.16 logs
microbial count ([1]; 40% milk product, Day 28, 5.0% and 10.0% MSM): 0.35 logs
Log Growth ([1]; Nonfat Milk, day 7): 1.00 log
Log Growth of 40% Milk Fat ([1]; […] MSM, day 0): 0.00 logs
Log Growth of 40% Milk Fat ([1]; […] MSM, day 7): 0.00 logs
Log Growth of 40% Milk Fat ([1]; […] MSM, day 14): 0.00 logs
Log Growth of 40% Milk Fat ([1]; […] MSM, day 21): 2.16 logs
Log Growth of 40% Milk Fat ([1]; […] MSM, day 24): 3.79 logs
Log Growth of 40% Milk Fat ([1]; […] MSM, day 28): 0.95 logs
Average Log Stimulation [2]: 0.17log10
Average Percent Stimulation [2]: 32.39%
Average TCID50 [2]: 3.67log10 and 4.42log10 and 4.67log10 and 5.00log10 and 4.58log10 and 4.17log10
CPE at dilution −6 [2]: 0000
CPE at dilution −7 [2]: 0000
Log Stimulation [2]: 0.17log10
Percent Stimulation [2]: 32.39%
TCID50 [2]: 3.75log10 and 3.50log10 and 4.00log10 and 4.50log10 and 4.25log10 and 4.75log10 and 5.00log10
average percent reduction [2]: 93.08% and 90.00% and 61.10% and 78.12%
average log10 reduction ([2]; 1% MSM): 0.25 log10
average percent reduction ([2]; 1% MSM): 43.77%
average log10 reduction ([2]; 2% MSM): 0.41 log10
average percent reduction ([2]; 2% MSM): 61.10%
average log10 reduction ([2]; 3% MSM): 0.00 log10
average percent reduction ([2]; 3% MSM): 00.00%
average log10 reduction ([2]; 4% MSM): 0.16 log10
average percent reduction ([2]; 4% MSM): 30.82%
Response, % reduction ([2]; Dose 5.312 mM (log dose 0.7252581)): 91.680% and 53.230% and 73.700%
Response, % reduction ([2]; Dose 31.871 mM (log dose 1.503396)): 0.000%
Response, % reduction ([2]; Dose 53.118 mM (log dose 1.725242)): 53.230% and 73.700%
HillSlope, best-fit value ([2]; log(inhibitor) vs. normalized response, variable slope): 0.2135
LogIC50, best-fit value ([2]; log(inhibitor) vs. normalized response, variable slope, dose in mM): 0.7087
AET microorganism count (Candida albicans; 10% MSM in Preservative Free Cosmetic Composition #2, 48 hours after inoculation): 9.0 × 10^2
AET microorganism count (Candida albicans; 10% MSM in Preservative Free Cosmetic Composition #2, 7 days after inoculation): <10
AET microorganism count (Candida albicans; [5]): <10
Log Reduction from Initial Microorganism Inoculum (Candida albicans; [4]): 4.3 log
Log Reduction from Initial Microorganism Inoculum (Candida albicans; 10% MSM, Composition #1): 5.3 log
Log Reduction from Initial Microorganism Inoculum (Candida albicans; 10% MSM, Composition #2): 5.3 log
fermentor activity sooner than control [3]: 58%
sooner time of completion [3]: 17-25%
starter activity sooner than control [3]: 80%
time to activity, fermentor [3]: 3.5 h
time to maximum fermentation [3]: 5 days
